Laboratory results published in patent US20200079793A1, “COMPOUNDS AND METHODS FOR MODULATING ADENOSINE A2B RECEPTOR AND ADENOSINE A2A RECEPTOR” (CORVUS PHARMACEUTICALS, INC., priority 2018, published 2020).

Tests used:
A1R = biological target: T1, A1R (Homo sapiens, UniProt P30542); assay: Activity assay of adenosine receptor modulators, A1R cAMP (Table 1); type: cell-based
T1 sequence (P30542 1-326): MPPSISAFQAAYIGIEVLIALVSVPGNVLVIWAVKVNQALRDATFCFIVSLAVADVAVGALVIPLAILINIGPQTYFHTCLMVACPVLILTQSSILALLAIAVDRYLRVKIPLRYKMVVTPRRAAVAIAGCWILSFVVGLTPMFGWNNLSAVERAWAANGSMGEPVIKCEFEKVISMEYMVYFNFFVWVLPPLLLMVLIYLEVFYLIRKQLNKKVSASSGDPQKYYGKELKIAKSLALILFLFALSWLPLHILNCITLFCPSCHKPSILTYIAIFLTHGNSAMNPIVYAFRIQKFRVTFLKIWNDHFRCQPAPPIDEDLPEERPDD
Procedure: (§1) Compounds (e.g., adenosine receptor modulators) were tested for its biological activity. The assay results in Table 1 indicate (+ means >1 μM; ++ means 100 nM to 1 μM; +++ means <100 nM).

Adenosine A2A Receptor = Adenosine A2A Receptor (Homo sapiens, UniProt P29274); assay: Activity assay of adenosine receptor modulators, Adenosine A2A Receptor (Table 1); type: biochemical; conditions: cAMP; read-out: A2AR cAMP IC50
Sequence of Adenosine A2A Receptor (P29274 whole entry): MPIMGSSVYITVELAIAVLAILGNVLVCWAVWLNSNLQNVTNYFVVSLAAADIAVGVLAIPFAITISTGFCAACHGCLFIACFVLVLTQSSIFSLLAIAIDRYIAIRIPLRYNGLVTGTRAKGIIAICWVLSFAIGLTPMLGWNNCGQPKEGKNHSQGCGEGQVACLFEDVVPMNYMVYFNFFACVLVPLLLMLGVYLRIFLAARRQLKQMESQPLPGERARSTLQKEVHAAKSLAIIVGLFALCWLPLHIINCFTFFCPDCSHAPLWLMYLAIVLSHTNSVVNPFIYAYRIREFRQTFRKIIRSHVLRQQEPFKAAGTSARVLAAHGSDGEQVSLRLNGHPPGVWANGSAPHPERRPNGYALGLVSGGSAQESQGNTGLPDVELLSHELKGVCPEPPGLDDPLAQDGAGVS
Procedure: as §1

A3R = biological target: T2, A3R (Homo sapiens, UniProt P0DMS8); assay: Activity assay of adenosine receptor modulators, A3R cAMP (Table 1); type: cell-based
T2 sequence (P0DMS8 1-318): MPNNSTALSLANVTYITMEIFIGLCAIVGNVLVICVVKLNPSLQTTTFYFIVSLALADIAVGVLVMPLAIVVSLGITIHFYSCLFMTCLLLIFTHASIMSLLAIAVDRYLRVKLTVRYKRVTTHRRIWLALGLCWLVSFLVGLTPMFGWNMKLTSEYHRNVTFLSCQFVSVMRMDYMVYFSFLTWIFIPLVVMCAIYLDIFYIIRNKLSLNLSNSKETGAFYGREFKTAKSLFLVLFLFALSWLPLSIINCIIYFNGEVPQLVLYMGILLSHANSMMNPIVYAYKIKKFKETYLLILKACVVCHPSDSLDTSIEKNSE
Procedure: as §1

Adenosine A2B Receptor = biological target: T3, Adenosine A2B Receptor (Homo sapiens, UniProt P29275); assay: Activity assay of adenosine receptor modulators, Adenosine A2B Receptor (Table 1); type: biochemical; conditions: cAMP; read-out: A2BR cAMP IC50
T3 sequence (P29275 1-332): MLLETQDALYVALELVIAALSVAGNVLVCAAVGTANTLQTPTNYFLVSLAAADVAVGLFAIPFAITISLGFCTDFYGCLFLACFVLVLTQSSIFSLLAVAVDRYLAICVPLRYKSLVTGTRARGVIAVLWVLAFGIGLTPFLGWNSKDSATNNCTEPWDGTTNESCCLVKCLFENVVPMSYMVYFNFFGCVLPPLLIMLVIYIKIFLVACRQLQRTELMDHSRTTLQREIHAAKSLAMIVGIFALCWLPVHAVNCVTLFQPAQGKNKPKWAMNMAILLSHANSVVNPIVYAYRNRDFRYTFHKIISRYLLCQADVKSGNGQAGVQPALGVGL
Procedure: as §1

| Structure (SMILES) | IC50 (A1R) | IC50 (Adenosine A2A Receptor) | IC50 (A3R) | IC50 (Adenosine A2B Receptor) |
| --- | --- | --- | --- | --- |
| Cc1nc2nc(N[C@@H](C)c3cncc(F)c3)nc(C(=O)N3CC(NC(=O)C4CCCCC4)C3)c2s1 [Example 61, (S)—N-(1-(5-((1-(5-Fluoropyridin-3-yl)ethyl)amino)-2-methylthiazolo[4,5-d]pyrimidine-7-carbonyl)azetidin-3-yl)cyclohexanecarboxamide] | > 1000 nM | < 100 nM | < 100 nM | < 100 nM |
| Cc1cc(C)cc(C(=O)NC2CN(C(=O)c3nc(N[C@@H](C)c4cccnc4)nc4nc(C)sc34)C2)c1 [Example 83, 3,5-Dimethyl-N-[1-[2-methyl-5-[[(S)-1-(3-pyridyl)ethyl]amino]thiazolo[4,5-d]pyrimidine-7-carbonyl]azetidin-3-yl]benzamide] | > 1000 nM | < 100 nM | > 1000 nM | < 100 nM |
| Cc1nc2nc(N[C@@H](C)c3cncc(F)c3)nc(C(=O)N3CC(NC(=O)C4CCC4)C3)c2s1 [Example 56, (S)—N-(1-(5-((1-(5-Fluoropyridin-3-yl)ethyl)amino)-2-methylthiazolo[4,5-d]pyrimidine-7-carbonyl)azetidin-3-yl)cyclobutanecarboxamide] | > 1000 nM | < 100 nM | < 100 nM | < 100 nM |
